# According to article PMC9104950, “Stereoselective Covalent Adduct Formation of Acyl Glucuronide Metabolite of Nonsteroidal Anti-Inflammatory Drugs with UDP-Glucuronosyltransferase” (International Journal of Molecular Sciences, 2022):
# Key:
# [1] = design: method as in PMID 20606003, PMID 1673415; conditions: phosphate buffers (pH 7.4); cited from earlier work
# UGT2B7 = target: T1, UGT2B7 (Homo sapiens, UniProt P16662); assay: Covalent adduct formation of NSAIDs-AG with UGT2B7; format: binding; conditions: 180 μM, UGT 3.4 μM, 6 h; for covalent adduct formation with UGT2B7: 37 °C
# T1 construct: purchased Corning, Inc
# T1 sequence (P16662 24-529): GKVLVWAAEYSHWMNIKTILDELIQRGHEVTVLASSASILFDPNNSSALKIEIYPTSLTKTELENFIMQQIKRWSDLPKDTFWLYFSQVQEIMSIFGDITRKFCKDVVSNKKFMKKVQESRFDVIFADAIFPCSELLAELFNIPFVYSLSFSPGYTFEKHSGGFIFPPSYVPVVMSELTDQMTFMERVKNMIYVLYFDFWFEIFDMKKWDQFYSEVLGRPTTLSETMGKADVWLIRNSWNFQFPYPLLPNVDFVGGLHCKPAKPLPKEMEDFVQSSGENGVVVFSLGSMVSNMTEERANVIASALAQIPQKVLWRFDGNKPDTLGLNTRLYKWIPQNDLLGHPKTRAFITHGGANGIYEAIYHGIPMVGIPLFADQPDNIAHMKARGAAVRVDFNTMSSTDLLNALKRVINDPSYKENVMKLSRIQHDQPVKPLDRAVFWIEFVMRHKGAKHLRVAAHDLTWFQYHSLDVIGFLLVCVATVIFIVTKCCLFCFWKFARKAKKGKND
# Protocol: (§1) The concentrations of UGT were set at 3.4 μM by the preliminary experiments on the linearity of covalent adduct formation. The covalent adduct formation of NSAIDs-AG with organelle proteins and UGT was determined according to previous reports on NSAIDs-AG with albumin with some modifications. After a deproteinization of the reaction mixture, methanol/diethyl ether (3:1) was added to the pellet. […] The concentrations of the parent NSAIDs were measured using liquid chromatography-tandem mass spectrometry (LC-MS/MS). Aliquots of 10 μL were injected into the LC-MS/MS system. The LC-MS/MS equipment consisted of an LC system (UltiMate 3000 series, Thermo Fisher Scientific, Inc.) and TSQ Endura Triple Quadrupole Mass Spectrometer with electrospray ionization (Thermo Fisher Scientific, Inc.). Finnigan Xcalibur software (Thermo Fisher Scientific, Inc.) was used for data recording and analysis. Analysis was further performed using a reversed-phase column (COSMOSIL 5C18-MSII, 2.0 mm × 150 mm, 5 μm; Nacalai Tesque, Inc.). The column temperature was set to 40 °C, and the autosampler was maintained at 10 °C. The mobile phase (A; 30% methanol in 8.5 mM ammonium formate and 0.0075% formic acid, and B; 90% methanol in 8.5 mM ammonium formate and 0.0075% formic acid) was pumped at a flow rate of 0.2 mL/min. The initial mobile phase composition was maintained at 30% mobile phase B for 1 min, changed linearly to 90% mobile phase B from 1 to 8 min, maintained for 1 min, returned to 30% mobile phase B from 9 to 10 min, and maintained for 1 min for chromatographic column equilibrium. The MS scan was operated in positive ionization mode for DIC, MEF, ZOM, KET, and NAP, or negative ionization mode, for FLU. The conditions for electrospray ionization were set at 3500 V spray voltage for positive ionization mode and 2500 V spray voltage for negative ionization mode at 400 °C capillary temperature, and 300 °C vaporizer temperature with 40 arbitrary units of nitrogen sheath gas and 10 arbitrary units of auxiliary gas. The MS scan was operated in the positive or negative ionization mode. The selected reaction monitoring (SRM) mode was used, with argon as the collision gas at 1.5 mTorr. The mass resolution was set at 0.7 full-width at half-height (unit resolution). SRM transitions (precursor and product ions) were mass to charge ratios of (m/z) 296 > 214 for DIC (positive ionization mode), 294 > 250 for DIC (negative ionization mode), 242 > 224 for MEF, 292 > 139 for ZOM, 243 > 198 for R- and S-FLU, 255 > 209 for R- and S-KET, 231 > 185 for R- and S-NAP, and 302 > 220 for DIC-d4. The collision energies were 15 V for DIC (negative ionization mode), ZOM, MEF, FLU, KET, and NAP; 35 V for DIC (positive ionization mode); and DIC-d4. The concentrations of NSAIDs were determined from a single-point calibration in every assay for NSAIDs after confirmation of linearity between area and concentrations of NSAIDs.
# [2] = system: proteins of Mic (microsomal fraction of liver homogenate); assay: Covalent adduct formation of NSAIDs-AG with proteins of microsomal fraction (Mic); conditions: for covalent adduct formation with Mic proteins: protein 1 mg/mL
# [3] = system: proteins of Mit (mitochondrial fraction of liver homogenate); assay: Covalent adduct formation of NSAIDs-AG with proteins of mitochondrial fraction (Mit); format: binding, rat; conditions: 180 μM, 6 h; for covalent adduct formation with Mit proteins: protein 1 mg/mL, 37 °C
# [4] = system: proteins of Nuc (nuclear fraction of liver homogenate); assay: Covalent adduct formation of NSAIDs-AG with proteins of nuclear fraction (Nuc); format: binding, rat; conditions: 180 μM, 6 h; for covalent adduct formation with Nuc proteins: protein 1 mg/mL, 37 °C
# [5] = system: proteins of Cyt (cytosolic fraction of liver homogenate); assay: Covalent adduct formation of NSAIDs-AG with proteins of cytosolic fraction (Cyt); format: binding, rat; conditions: 180 μM, 6 h; for covalent adduct formation with Cyt proteins: protein 1 mg/mL, 37 °C
# UGT1A9 = target: T2, UGT1A9 (Homo sapiens, UniProt O60656); assay: Covalent adduct formation of NSAIDs-AG with UGT1A9; format: binding; conditions: 180 μM, UGT 3.4 μM, 6 h
# T2 construct: purchased Corning, Inc
# T2 sequence (O60656 26-530): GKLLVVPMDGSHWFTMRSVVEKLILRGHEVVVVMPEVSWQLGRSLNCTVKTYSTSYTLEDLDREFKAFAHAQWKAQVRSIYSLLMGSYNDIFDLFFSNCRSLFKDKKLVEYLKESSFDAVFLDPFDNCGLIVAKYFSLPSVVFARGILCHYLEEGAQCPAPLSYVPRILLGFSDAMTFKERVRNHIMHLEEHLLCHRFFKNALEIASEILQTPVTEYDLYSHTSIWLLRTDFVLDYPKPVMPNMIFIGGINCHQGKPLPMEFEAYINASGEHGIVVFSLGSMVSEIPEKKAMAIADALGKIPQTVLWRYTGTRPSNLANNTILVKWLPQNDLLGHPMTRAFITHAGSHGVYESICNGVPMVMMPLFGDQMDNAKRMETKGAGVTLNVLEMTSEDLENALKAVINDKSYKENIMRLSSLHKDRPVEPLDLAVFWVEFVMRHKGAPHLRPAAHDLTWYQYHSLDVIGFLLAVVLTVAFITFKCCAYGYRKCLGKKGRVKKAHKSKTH
# Protocol: as §1, with “The conditions for electrospray ionization were set at 3500 V spray voltage for positive ionization mode and 2500 V spray voltage for negative ionization mode at 400 °C capillary temperature, and 300 °C vaporizer temperature with 40 arbitrary units of nitrogen sheath gas and 10 arbitrary units of auxiliary gas. The MS scan was operated in the positive or negative ionization mode. The selected reaction monitoring (SRM) mode was used, with argon as the collision gas at 1.5 mTorr. The mass resolution was set at 0.7 full-width at half-height (unit resolution). SRM transitions (precursor and product ions) were mass to charge ratios of (m/z) 296 > 214 for DIC (positive ionization mode), 294 > 250 for DIC (negative ionization mode), 242 > 224 for MEF, 292 > 139 for ZOM, 243 > 198 for R- and S-FLU, 255 > 209 for R- and S-KET, 231 > 185 for R- and S-NAP, and 302 > 220 for DIC-d4. The collision energies were 15 V for DIC (negative ionization mode), ZOM, MEF, FLU, KET, and NAP; 35 V for DIC (positive ionization mode); and DIC-d4.” left out
# UGT2B4 = target: T3, UGT2B4 (Homo sapiens, UniProt P06133); assay: Covalent adduct formation of NSAIDs-AG with UGT2B4; format: binding; conditions: R vs S diastereomer; 180 μM, UGT 3.4 μM, 6 h
# T3 construct: purchased Corning, Inc
# T3 sequence (P06133 24-528): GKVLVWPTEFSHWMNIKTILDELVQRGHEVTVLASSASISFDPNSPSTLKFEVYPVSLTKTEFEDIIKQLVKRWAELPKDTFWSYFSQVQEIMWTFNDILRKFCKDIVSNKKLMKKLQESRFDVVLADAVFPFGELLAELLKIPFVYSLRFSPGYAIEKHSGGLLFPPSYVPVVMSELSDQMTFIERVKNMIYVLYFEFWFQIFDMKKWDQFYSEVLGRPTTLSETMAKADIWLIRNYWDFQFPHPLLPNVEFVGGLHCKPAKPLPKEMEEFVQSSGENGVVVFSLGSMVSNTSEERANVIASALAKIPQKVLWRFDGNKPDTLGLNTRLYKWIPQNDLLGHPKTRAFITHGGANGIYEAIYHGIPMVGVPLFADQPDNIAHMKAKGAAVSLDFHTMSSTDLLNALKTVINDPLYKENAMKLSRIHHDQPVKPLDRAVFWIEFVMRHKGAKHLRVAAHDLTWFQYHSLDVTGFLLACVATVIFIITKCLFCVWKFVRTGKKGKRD
# Protocol: as §1
capacity to form covalent adducts with UGT2B7 relative to mefenamic acid-AG (UGT2B7),covalent adduct formation with UGT2B7 (UGT2B7),"covalent adducts with organelle proteins (Mic) relative to R-KET-AG ([2]; 180 μM, 1 mg/mL, 6 h)","covalent adduct formation with Mic proteins ([2]; 180 μM, 6 h, 37 °C)",covalent adducts with organelle proteins (Mit) relative to R-KET-AG ([3]; 1 mg/mL),covalent adduct formation with Mit proteins [3],covalent adducts with organelle proteins (Nuc) relative to R-KET-AG ([4]; 1 mg/mL),covalent adduct formation with Nuc proteins [4],covalent adducts with organelle proteins (Cyt) relative to R-KET-AG ([5]; 1 mg/mL),covalent adduct formation with Cyt proteins [5],capacity to form covalent adducts with UGT1A9 relative to mefenamic acid-AG (UGT1A9),SMILES,half-lives in buffers [1],amounts of covalent adducts with UGT2B7 compared with UGT1A9 (UGT2B7),"number of covalent adducts with the proteins of Mic, effect of concentration and incubation time ([2]; DIC-AG 120-600 μM for 6 h, 180 μM for 1-24 h, Mic 1 mg/mL, 37 °C)",covalent adduct formation with UGT2B7 compared with the other diastereomer (UGT2B7; R vs S diastereomer),covalent adduct formation with UGT2B4 compared with the other diastereomer (UGT2B4)
approximately 10 times,higher amounts of covalent adducts,approximately twice as high,formed covalent adducts,approximately twice as high,formed covalent adducts,approximately twice as high,formed covalent adducts,approximately twice as high,formed covalent adducts,approximately 10 times,O=C(Cc1ccccc1Nc1c(Cl)cccc1Cl)O[C@@H]1O[C@H](C(=O)O)[C@@H](O)[C@H](O)[C@H]1O [DIC-AG],relatively short half-lives,significantly lower amounts of covalent adducts,increased in a concentration- and time-dependent manner,–,–
–,–,–,formed covalent adducts,–,formed covalent adducts,–,formed covalent adducts,–,formed covalent adducts,–,CC(C(=O)O[C@@H]1O[C@H](C(=O)O)[C@@H](O)[C@H](O)[C@H]1O)c1cccc(C(=O)c2ccccc2)c1 (stereo partly shown) [KET-AG],–,–,–,remarkably stereoselective formation of a covalent adduct,remarkably stereoselective formation of a covalent adduct
–,higher amounts of covalent adducts,–,–,–,–,–,–,–,–,–,COc1ccc2cc(C(C)C(=O)O[C@@H]3O[C@H](C(=O)O)[C@@H](O)[C@H](O)[C@H]3O)ccc2c1 (stereo partly shown) [NAP-AG],relatively short half-lives,–,–,–,–
